Assay results published in patent publication US9540397B2, “BACE1 inhibitors” (Hoffmann-La Roche Inc., priority 2014, dated 2017).

Experiments:
[1] = test system: Aβ40 in brain of wild-type mice; experiment: Lowering of Aβ40 in brain of wild-type mice; format: in vivo; conditions: Mus musculus, po; female C57Bl/6J mice, 30 mg/kg per os, 4 h; brain Aβ40 related to the value in the vehicle group; read-out: Aβ40 (wt mice, brain)
Experimental: Lowering of Aβ40 in Brain of Wild-Type Mice:
Animals and Housing Conditions.
Animals were maintained in a 12/12 h light/dark cycle, with lights starting at 6 a.m., and experiments were conducted during the light phase. Animal housing and experimental procedures were in line with ethical and legal guidelines and were authorized by local veterinary authorities.
Experiment. Female C57Bl/6J mice were treated with a dose of 30 mg/kg of the compounds, 3-4 animals per treatment group. The test compound was dissolved in 5% EtOH, 10% Solutol, and was applied per os at 10 mL/kg. After 4 h, the animals were sacrificed and brain and plasma were collected. The brain was cut into halves and immediately frozen on dry ice. Brain was used for measurement of Aβ40 and plasma was used for determination of compound exposure. […] Brain tissue was homogenized in 2% DEA buffer in a Roche MagnaLyser (20″, 4000 rpm) and subsequently centrifuged for 1 h at 100000 g. DEA was reduced to 0.2% in 50 mM NaCl and one-half of the DEA lysate was passed over an Oasis Solid phase extraction plate (Waters; cat. no. 186000679), which had been activated with MeOH and equilibrated in dH2O (1 mL each). After washes in 10% and 30% MeOH (1 mL each), the Aβ-peptides were eluted in 0.8 mL of 2% NH4OH in 90% MeOH. The eluate was dried over a N2 flow, and the dried sample was reconstituted in 30 μL of AlphaLISA assay buffer. Aβ40 was determined by an AlphaLISA assay (Perkin-Elmer). In a white 96-well, half area microplate (Perkin-Elmer cat. no. 6005561), 20 μL of the reconstituted sample were mixed with 5 μL of biotinylated BAP-24 (specific for C-terminus of Aβ40) (Brockhaus, M.; Grunberg, J.; Rohrig, S.; Loetscher, H.; Wittenburg, N.; Baumeister, R.; Jacobsen, H.; Haass, C. Caspasemediated cleavage is not required for the activity of presenilins in amyloidogenesis and NOTCH signaling. NeuroReport 1998, 9, 1481-1486.) stock=4.4 mg/mL, f.c.5.5 μg/mL), and 5 μL 252Q6 acceptor beads (252Q6 antibody, Invitrogen AMB0062) had been previously conjugated with AlphaLISA Acceptor beads (Perkin-Elmer cat. no. 6772002); final dilution 1:500). The mix was incubated for 1 h at RT in the dark. Then 20 μL of Streptavin-coated Donor Beads (Perkin-Elmer cat. no. 6760002, final dilution 1:125) were added and this final mix was incubated in the dark for another 30 min at RT before RFU was measured in an AlphaScreen Reader (Perkin-Elmer Envision 2104). The value obtained for Aβ40 in the treated animals was related to the value in the vehicle group and is given in %. Alternatively a commercial ELISA was used for Aβ40 determination (Wako ELISA: (“Human/Rat β Amyloid (40) ELISA kit Wako II”; cat nr. 294-64701) following the manufacture's instruction. Also here the Aβ-lowering efficacy was calculated as percentage of the vehicle group.

[2] = biological target: T1, BACE1 (Homo sapiens, UniProt P56817); experiment: Cellular Aβ-lowering assay (Abeta 40 AlphaLISA, HEK293 APP cells); format: cell-based; conditions: 18-20 hrs incubation, Aβ40 in culture supernatant, read-out: BACE1 cell act. Aβ40 IC50
T1 construct: endogenous in cells; host or cells: HEK293 APP cells
Method in brief: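 APP-expressing HEK293 cells exposed to compounds for 18-20 h at 37° C. (1% DMSO final). Secreted Aβ1-40 in supernatant measured by AlphaLISA (615 nm emission), expressed as percent of DMSO-only signal, and IC50 fitted.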

T1 sequence (P56817 46-501): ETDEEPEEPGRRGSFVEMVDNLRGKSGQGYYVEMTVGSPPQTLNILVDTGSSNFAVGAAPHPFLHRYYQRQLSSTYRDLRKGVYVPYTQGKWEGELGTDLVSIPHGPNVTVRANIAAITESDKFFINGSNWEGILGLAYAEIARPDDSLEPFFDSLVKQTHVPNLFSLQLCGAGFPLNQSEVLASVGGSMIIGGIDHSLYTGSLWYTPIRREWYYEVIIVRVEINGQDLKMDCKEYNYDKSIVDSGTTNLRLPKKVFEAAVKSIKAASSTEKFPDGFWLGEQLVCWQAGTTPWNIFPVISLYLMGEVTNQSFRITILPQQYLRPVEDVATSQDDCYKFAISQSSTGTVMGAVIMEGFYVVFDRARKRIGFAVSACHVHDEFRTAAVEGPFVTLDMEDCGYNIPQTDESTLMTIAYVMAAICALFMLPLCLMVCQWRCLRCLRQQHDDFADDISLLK

SMILES | IC50 [2] | response vs control in vivo at 30 mg/kg [1]
CC1(C)C(N)=N[C@](C)(c2nc(NC(=O)c3ccc(OCC(F)(F)C(F)F)cn3)ccc2F)[C@H]2CC(F)(F)CN=[S@@]21=O [Example 36AA, N-(6-((4aR,5R,9R)-7-amino-3,3-difluoro-5,8,8-trimethyl-9-oxido-2,3,4,4a,5,8-hexahydro-[1,4]thiazino[2,1-f][1,2]thiazin-5-yl)-5-fluoropyridin-2-yl)-5-(2,2,3,3-tetrafluoropropoxy)-picolinamide] | 416 nM | 84%
CC1(C)C(N)=N[C@](C)(c2nc(NC(=O)c3ccc(C#N)cn3)ccc2F)[C@H]2CC(F)(F)CN=[S@@]21=O [Example 34AA, N-(6-((4aR,5R,9R)-7-amino-3,3-difluoro-5,8,8-trimethyl-9-oxido-2,3,4,4a,5,8-hexahydro-[1,4]thiazino[2,1-f][1,2]thiazin-5-yl)-5-fluoropyridin-2-yl)-5-cyanopicolinamide] | 9.8 nM | 113%
CC1(C)C(N)=N[C@](C)(c2nc(NC(=O)c3ccc(OCC(F)(F)C(F)F)cn3)ccc2F)[C@H]2CCCN=[S@@]21=O [Example 8AA, N-(6-((4aR,5R,9R)-7-amino-5,8,8-trimethyl-9-oxido-2,3,4,4a,5,8-hexahydro-[1,4]thiazino[2,1-f][1,2]thiazin-5-yl)-5-fluoropyridin-2-yl)-5-(2,2,3,3-tetrafluoropropoxy)picolinamide] | 35.4 nM | 61%
COc1cnc(C(=O)Nc2ccc(F)c([C@@]3(C)N=C(N)C(C)(C)[S@@]4(=O)=NCCC[C@H]34)n2)cn1 [Example 2AA, N-(6-((4aR,5R,9R)-7-amino-5,8,8-trimethyl-9-oxido-2,3,4,4a,5,8-hexahydro-[1,4]thiazino[2,1-f][1,2]thiazin-5-yl)-5-fluoropyridin-2-yl)-5-methoxypyrazine-2-carboxamide] | 19.7 nM | 83%
CC1(C)C(N)=N[C@](C)(c2nc(NC(=O)c3ccc(OC(F)F)cn3)ccc2F)[C@H]2CCCN=[S@@]21=O [Example 7AA, N-(6-((4aR,5R,9R)-7-amino-5,8,8-trimethyl-9-oxido-2,3,4,4a,5,8-hexahydro-[1,4]thiazino[2,1-f][1,2]thiazin-5-yl)-5-fluoropyridin-2-yl)-5-(difluoromethoxy)picolinamide] | 2.7 nM | 65%
CC1(C)C(N)=N[C@](C)(c2nc(NC(=O)c3ccc(OCF)cn3)ccc2F)[C@@H]2CCN=[S@@]21=O [Example 13AB, N-(6-((3aS,4R,8R)-6-amino-4,7,7-trimethyl-8-oxido-3,3a,4,7-tetrahydro-2H-isothiazolo[1,5-a][1,4]thiazin-4-yl)-5-fluoropyridin-2-yl)-5-(fluoromethoxy)picolinamide] | 9.8 nM | 86%
CC1(C)C(N)=N[C@](C)(c2nc(NC(=O)c3ccc(F)cn3)ccc2F)[C@H]2CC(F)(F)CN=[S@@]21=O [Example 33AA, N-(6-((4aR,5R,9R)-7-amino-3,3-difluoro-5,8,8-trimethyl-9-oxido-2,3,4,4a,5,8-hexahydro-[1,4]thiazino[2,1-f][1,2]thiazin-5-yl)-5-fluoropyridin-2-yl)-5-fluoropicolinamide] | 90 nM | 83%

Second part, led by results:

IC50 [2] | SMILES | response vs control in vivo at 30 mg/kg [1]
8.6 nM | COc1cnc(C(=O)Nc2ccc(F)c([C@@]3(C)N=C(N)C(C)(C)[S@@]4(=O)=NCC[C@@H]34)n2)cn1 [Example 16AB, N-(6-((3aS,4R,8R)-6-amino-4,7,7-trimethyl-8-oxido-3,3a,4,7-tetrahydro-2H-isothiazolo[1,5-a][1,4]thiazin-4-yl)-5-fluoropyridin-2-yl)-5-methoxypyrazine-2-carboxamide] | 89%
1.6 nM | CC1(C)C(N)=N[C@](C)(c2nc(NC(=O)c3ncc(C#N)cc3Cl)ccc2F)[C@H]2CC(F)(F)CN=[S@@]21=O [Example 37AA, N-(6-((4aR,5R,9R)-7-amino-3,3-difluoro-5,8,8-trimethyl-9-oxido-2,3,4,4a,5,8-hexahydro-[1,4]thiazino[2,1-f][1,2]thiazin-5-yl)-5-fluoropyridin-2-yl)-3-chloro-5-cyanopicolinamide] | 73%
30.4 nM | CC1(C)C(N)=N[C@](C)(c2nc(NC(=O)c3ncc(F)cc3Cl)ccc2F)[C@H]2CC(F)(F)CN=[S@@]21=O [Example 41AA, N-(6-((4aR,5R,9R)-7-amino-3,3-difluoro-5,8,8-trimethyl-9-oxido-2,3,4,4a,5,8-hexahydro-[1,4]thiazino[2,1-f][1,2]thiazin-5-yl)-5-fluoropyridin-2-yl)-3-chloro-5-fluoropicolinamide] | 78%
3.5 nM | CC1(C)C(N)=N[C@](C)(c2nc(NC(=O)c3ncc(F)cc3Cl)ccc2F)[C@@H]2CCN=[S@@]21=O [Example 11AB, N-(6-((3aS,4R,8R)-6-amino-4,7,7-trimethyl-8-oxido-3,3a,4,7-tetrahydro-2H-isothiazolo[1,5-a][1,4]thiazin-4-yl)-5-fluoropyridin-2-yl)-3-chloro-5-fluoropicolinamide] | 100%
0.3 nM | Cc1cc(C#N)cnc1C(=O)Nc1ccc(F)c([C@@]2(C)N=C(N)C(C)(C)[S@@]3(=O)=NCC4(CC4)C[C@H]23)n1 [Example 48AA, N-(6-((4aR,5R,9R)-7-amino-5,8,8-trimethyl-9-oxido-4,4a,5,8-tetrahydro-2H-spiro[[1,4]thiazino[2,1-f][1,2]thiazine-3,1′-cyclopropan]-5-yl)-5-fluoropyridin-2-yl)-5-cyano-3-methylpicolinamide] | 61%
18.1 nM | Cc1cc(F)cnc1C(=O)Nc1ccc(F)c([C@@]2(C)N=C(N)C(C)(C)[S@@]3(=O)=NCCC[C@H]23)n1 [Example 4AA, N-(6-((4aR,5R,9R)-7-amino-5,8,8-trimethyl-9-oxido-2,3,4,4a,5,8-hexahydro-[1,4]thiazino[2,1-f][1,2]thiazin-5-yl)-5-fluoropyridin-2-yl)-5-fluoro-3-methylpicolinamide] | 80%
3.9 nM | Cc1cc(C#N)cnc1C(=O)Nc1ccc(F)c([C@@]2(C)N=C(N)C(C)(C)[S@]3(=O)=NCCC[C@@H]23)n1 [Example 1BB, N-(6-((4aS,5R,9S)-7-amino-5,8,8-trimethyl-9-oxido-2,3,4,4a,5,8-hexahydro-[1,4]thiazino[2,1-f][1,2]thiazin-5-yl)-5-fluoropyridin-2-yl)-5-cyano-3-methylpicolinamide] | 93%
1.3 nM | CC1(C)C(N)=N[C@](C)(c2nc(NC(=O)c3ncc(Cl)cc3Cl)ccc2F)[C@H]2CCCN=[S@@]21=O [Example 3AA, N-(6-((4aR,5R,9R)-7-amino-5,8,8-trimethyl-9-oxido-2,3,4,4a,5,8-hexahydro-[1,4]thiazino[2,1-f][1,2]thiazin-5-yl)-5-fluoropyridin-2-yl)-3,5-dichloropicolinamide] | 76%
15.5 nM | CC1(C)C(N)=N[C@](C)(c2nc(NC(=O)c3ncc(C#N)cc3Cl)ccc2F)[C@H]2CCN=[S@]21=O [Example 25BA, N-(6-((3aR,4R,8S)-6-amino-4,7,7-trimethyl-8-oxido-3,3a,4,7-tetrahydro-2H-isothiazolo[1,5-a][1,4]thiazin-4-yl)-5-fluoropyridin-2-yl)-3-chloro-5-cyanopicolinamide] | 117%
0.5 nM | CC1(C)C(N)=N[C@](C)(c2nc(NC(=O)c3ncc(C#N)cc3Cl)ccc2F)[C@@H]2CCN=[S@@]21=O [Example 25AB, N-(6-((3aS,4R,8R)-6-amino-4,7,7-trimethyl-8-oxido-3,3a,4,7-tetrahydro-2H-isothiazolo[1,5-a][1,4]thiazin-4-yl)-5-fluoropyridin-2-yl)-3-chloro-5-cyanopicolinamide] | 56%
